The text below walks through data of PMC11822212, “High-throughput screening identifies Aurora kinase B as a critical therapeutic target for Merkel cell carcinoma” (Nature Communications, 2025).

Where two headings read alike, the source gives them in different places.

Some test systems named below: MKL-2 cells (VP-MCC); UISO cells (VN-MCC); MCC26 cells (VN-MCC); MKL-1 cells (VP-MCC); MCC13 cells (VN-MCC); WAGA cells (VP-MCC).
Test in all cases: qHTS cell viability (CellTiter-Glo, 72 h; primary and follow-up small molecule screen)
Holding throughout (format): cell-based, human
In general terms: qHTS replaces the single test concentration by a dilution series.

The mark [1] stands for this setting: follow-up screen, MKL-2, replicate 1.
The mark [2] stands for this setting: follow-up screen, MKL-2, replicate 2.
Where [3] appears, read: follow-up screen, MKL-2, replicate 3.
Where [4] appears, read: follow-up screen, UISO, replicate 1.
[5] abbreviates: follow-up screen, UISO, replicate 2.
Setting [6] is: follow-up screen, UISO, replicate 3.
The mark [7] stands for this setting: follow-up screen, MCC26, replicate 1.
[8] abbreviates: follow-up screen, MCC26, replicate 2.
[9] abbreviates: follow-up screen, MCC26, replicate 3.
[10] abbreviates: follow-up screen, MKL-1, replicate 1.
[11] abbreviates: follow-up screen, MKL-1, replicate 2.
[12] abbreviates: follow-up screen, MKL-1, replicate 3.
Setting [13] is: follow-up screen, MCC13, replicate 1.
The mark [14] stands for this setting: follow-up screen, MCC13, replicate 2.
The mark [15] stands for this setting: follow-up screen, MCC13, replicate 3.
Where [16] appears, read: follow-up screen, WAGA, replicate 1.
Where [17] appears, read: follow-up screen, WAGA, replicate 2.
Where [18] appears, read: follow-up screen, WAGA, replicate 3.

For `CO[C@H]1/C=C/O[C@@]2(C)Oc3c(C)c(O)c4c(O)c(c(/C=N/N5CCN(C6CCCC6)CC5)c(O)c4c3C2=O)NC(=O)/C(C)=C\C=C\[C@H](C)[C@H](O)[C@@H](C)[C@@H](O)[C@@H](C)[C@H](OC(C)=O)[C@@H]1C` [Rifapentine], the “Area under the dose-response curve (AUC) MKL-2 Replicate 1” value (“Area … (AUC) MKL-2 Replicate 1” below) in the experiment on MKL-2 cells (VP-MCC) (setting [1]) is listed as 477.3. Moreover, the “Area under the dose-response curve (AUC) MKL-2 Replicate 2” value (“Area … (AUC) MKL-2 Replicate 2” for short) with MKL-2 cells (VP-MCC) (setting [2]) came to 488.3. The “Area under the dose-response curve (AUC) MKL-2 Replicate 3” value (from here on “Area … (AUC) MKL-2 Replicate 3”) in the experiment with MKL-2 cells (VP-MCC) (setting [3]) is reported as 494.1. The “Area under the dose-response curve (AUC) UISO Replicate 1” value (from here on “Area … (AUC) UISO Replicate 1”) in the experiment with UISO cells (VN-MCC) (setting [4]) is listed as 475.3. For the same compound, the “Area under the dose-response curve (AUC) UISO Replicate 2” value (“Area … (AUC) UISO Replicate 2” for short) in the experiment with UISO cells (VN-MCC) (setting [5]) turned out to be 482.1. In addition, the “Area under the dose-response curve (AUC) UISO Replicate 3” value (“Area … (AUC) UISO Replicate 3” for short) in the experiment with UISO cells (VN-MCC) (setting [6]) was found to be 453.0. Besides, the “Area under the dose-response curve (AUC) MCC26 Replicate 1” value (“Area … (AUC) MCC26 Replicate 1” for short) in the experiment with MCC26 cells (VN-MCC) (setting [7]) is 454.9. In the experiment with MCC26 cells (VN-MCC) (setting [8]), the “Area under the dose-response curve (AUC) MCC26 Replicate 2” value (from here on “Area … (AUC) MCC26 Replicate 2”) stood at 422.8. In the experiment on MCC26 cells (VN-MCC) (setting [9]), the “Area under the dose-response curve (AUC) MCC26 Replicate 3” value (from here on “Area … (AUC) MCC26 Replicate 3”) stood at 488.5. Besides, the “Area under the dose-response curve (AUC) MKL-1 Replicate 1” value (from here on “Area … (AUC) MKL-1 Replicate 1”) in the experiment with MKL-1 cells (VP-MCC) (setting [10]) stood at 466.1. The “Area under the dose-response curve (AUC) MKL-1 Replicate 2” value (from here on “Area … (AUC) MKL-1 Replicate 2”) in the experiment on MKL-1 cells (VP-MCC) (setting [11]) came out at 446.1. Also, the “Area under the dose-response curve (AUC) MKL-1 Replicate 3” value (from here on “Area … (AUC) MKL-1 Replicate 3”) in the experiment on MKL-1 cells (VP-MCC) (setting [12]) is listed as 500.1. Moreover, in the experiment on MCC13 cells (VN-MCC) (setting [13]), the “Area under the dose-response curve (AUC) MCC13 Replicate 1” value (from here on “Area … (AUC) MCC13 Replicate 1”) was found to be 505.1. In addition, the “Area under the dose-response curve (AUC) MCC13 Replicate 2” value (from here on “Area … (AUC) MCC13 Replicate 2”) in the experiment with MCC13 cells (VN-MCC) (setting [14]) was determined as 494.8. In the experiment with MCC13 cells (VN-MCC) (setting [15]), the “Area under the dose-response curve (AUC) MCC13 Replicate 3” value (from here on “Area … (AUC) MCC13 Replicate 3”) was determined as 490.8. For the same compound, the “Area under the dose-response curve (AUC) WAGA Replicate 1” value (from here on “Area … (AUC) WAGA Replicate 1”) with WAGA cells (VP-MCC) (setting [16]) was 525.4. Further, the “Area under the dose-response curve (AUC) WAGA Replicate 2” value (“Area … (AUC) WAGA Replicate 2” for short) with WAGA cells (VP-MCC) (setting [17]) came out at 514.7. Also, in the experiment with WAGA cells (VP-MCC) (setting [18]), the “Area under the dose-response curve (AUC) WAGA Replicate 3” value (“Area … (AUC) WAGA Replicate 3” for short) stood at 508.3.

Consider `CCc1c2c(nc3ccc(O)cc13)-c1cc3c(c(=O)n1C2)COC(=O)[C@]3(O)CC` [SN-38], for which the “Area … (AUC) MKL-2 Replicate 1” value in the experiment with MKL-2 cells (VP-MCC) (setting [1]) was found to be 131.4. Moreover, the “Area … (AUC) MKL-2 Replicate 2” value in the experiment on MKL-2 cells (VP-MCC) (setting [2]) came to 119.7. The “Area … (AUC) MKL-2 Replicate 3” value with MKL-2 cells (VP-MCC) (setting [3]) was 221.9. Moreover, the “Area … (AUC) UISO Replicate 1” value in the experiment on UISO cells (VN-MCC) (setting [4]) came out at 127.3. Moreover, the “Area … (AUC) UISO Replicate 2” value in the experiment on UISO cells (VN-MCC) (setting [5]) is listed as 148.1. Besides, the “Area … (AUC) UISO Replicate 3” value in the experiment on UISO cells (VN-MCC) (setting [6]) worked out at 144.2. In the experiment on MCC26 cells (VN-MCC) (setting [7]), the “Area … (AUC) MCC26 Replicate 1” value worked out at 201.3. Besides, in the experiment on MCC26 cells (VN-MCC) (setting [8]), the “Area … (AUC) MCC26 Replicate 2” value is on record as 194.5. For the same compound, the “Area … (AUC) MCC26 Replicate 3” value in the experiment with MCC26 cells (VN-MCC) (setting [9]) is given as 189.1. The “Area … (AUC) MKL-1 Replicate 1” value with MKL-1 cells (VP-MCC) (setting [10]) was determined as 135.7. For the same compound, in the experiment with MKL-1 cells (VP-MCC) (setting [11]), the “Area … (AUC) MKL-1 Replicate 2” value came out at 150.7. Besides, in the experiment on MKL-1 cells (VP-MCC) (setting [12]), the “Area … (AUC) MKL-1 Replicate 3” value was determined as 162.0. For the same compound, the “Area … (AUC) MCC13 Replicate 1” value in the experiment on MCC13 cells (VN-MCC) (setting [13]) is on record as 218.6. The “Area … (AUC) MCC13 Replicate 2” value with MCC13 cells (VN-MCC) (setting [14]) stood at 222.5. Further, in the experiment on MCC13 cells (VN-MCC) (setting [15]), the “Area … (AUC) MCC13 Replicate 3” value worked out at 261.5. Besides, the “Area … (AUC) WAGA Replicate 1” value in the experiment on WAGA cells (VP-MCC) (setting [16]) is on record as 143.8. The “Area … (AUC) WAGA Replicate 2” value in the experiment on WAGA cells (VP-MCC) (setting [17]) is given as 150.1. Also, in the experiment on WAGA cells (VP-MCC) (setting [18]), the “Area … (AUC) WAGA Replicate 3” value is 140.2.

For the compound `C[n+]1cc2c3c(ccc2c2ccc4cc5c(cc4c21)OCO5)OCO3` [Sanguinarine], in the experiment on MKL-2 cells (VP-MCC), the “Area … (AUC) MKL-2 Replicate 1” value came to 328.8, the “Area … (AUC) MKL-2 Replicate 2” value worked out at 346.3 and the “Area … (AUC) MKL-2 Replicate 3” value is 358.6. Also, in the experiment with UISO cells (VN-MCC), the “Area … (AUC) UISO Replicate 1” value is 370.0, the “Area … (AUC) UISO Replicate 2” value is 363.9 and the “Area … (AUC) UISO Replicate 3” value was determined as 365.4. For the same compound, in the experiment on MCC26 cells (VN-MCC), the “Area … (AUC) MCC26 Replicate 1” value turned out to be 339.9, the “Area … (AUC) MCC26 Replicate 2” value is listed as 348.4 and the “Area … (AUC) MCC26 Replicate 3” value turned out to be 364.0. In addition, in the experiment on MKL-1 cells (VP-MCC), the “Area … (AUC) MKL-1 Replicate 1” value turned out to be 358.8, the “Area … (AUC) MKL-1 Replicate 2” value stood at 334.5 and the “Area … (AUC) MKL-1 Replicate 3” value is reported as 363.7. In the experiment with MCC13 cells (VN-MCC), the “Area … (AUC) MCC13 Replicate 1” value was determined as 361.4, the “Area … (AUC) MCC13 Replicate 2” value came out at 359.5 and the “Area … (AUC) MCC13 Replicate 3” value came to 378.6. Moreover, in the experiment with WAGA cells (VP-MCC), the “Area … (AUC) WAGA Replicate 1” value came to 371.2, the “Area … (AUC) WAGA Replicate 2” value is 384.9 and the “Area … (AUC) WAGA Replicate 3” value turned out to be 367.1.

As to `CN[C@@H]1[C@H](O)[C@H](NC)[C@H]2O[C@@]3(O)C(=O)C[C@@H](C)O[C@H]3O[C@@H]2[C@H]1O.Cl.Cl.O.O.O.O.O` [Spectinomycin hydrochloride], in the experiment with MKL-2 cells (VP-MCC) (setting [1]), the “Area … (AUC) MKL-2 Replicate 1” value worked out at 495.5. The “Area … (AUC) MKL-2 Replicate 2” value with MKL-2 cells (VP-MCC) (setting [2]) is 540.4. Besides, the “Area … (AUC) MKL-2 Replicate 3” value with MKL-2 cells (VP-MCC) (setting [3]) came to 501.9. The “Area … (AUC) UISO Replicate 1” value with UISO cells (VN-MCC) (setting [4]) was 480.2. In addition, in the experiment on UISO cells (VN-MCC) (setting [5]), the “Area … (AUC) UISO Replicate 2” value is recorded as 491.5. For the same compound, the “Area … (AUC) UISO Replicate 3” value in the experiment with UISO cells (VN-MCC) (setting [6]) came to 485.2. Besides, in the experiment on MCC26 cells (VN-MCC) (setting [7]), the “Area … (AUC) MCC26 Replicate 1” value is on record as 469.4. Further, the “Area … (AUC) MCC26 Replicate 2” value in the experiment on MCC26 cells (VN-MCC) (setting [8]) came out at 428.8. In the experiment with MCC26 cells (VN-MCC) (setting [9]), the “Area … (AUC) MCC26 Replicate 3” value amounted to 486.9. In the experiment with MKL-1 cells (VP-MCC) (setting [10]), the “Area … (AUC) MKL-1 Replicate 1” value came out at 495.1. The “Area … (AUC) MKL-1 Replicate 2” value in the experiment with MKL-1 cells (VP-MCC) (setting [11]) is 464.4. Further, the “Area … (AUC) MKL-1 Replicate 3” value in the experiment with MKL-1 cells (VP-MCC) (setting [12]) came out at 515.8. For the same compound, the “Area … (AUC) MCC13 Replicate 1” value in the experiment with MCC13 cells (VN-MCC) (setting [13]) is given as 504.6. Besides, in the experiment with MCC13 cells (VN-MCC) (setting [14]), the “Area … (AUC) MCC13 Replicate 2” value is recorded as 484.6. Further, in the experiment on MCC13 cells (VN-MCC) (setting [15]), the “Area … (AUC) MCC13 Replicate 3” value amounted to 486.4. In addition, the “Area … (AUC) WAGA Replicate 1” value in the experiment on WAGA cells (VP-MCC) (setting [16]) turned out to be 531.5. The “Area … (AUC) WAGA Replicate 2” value in the experiment with WAGA cells (VP-MCC) (setting [17]) was 530.5. In the experiment with WAGA cells (VP-MCC) (setting [18]), the “Area … (AUC) WAGA Replicate 3” value was determined as 510.1.
